Measured values as given in patent US20240270741A1 (Cogent Biosciences, Inc., priority 2023, published 2024).

The compounds below were run against FGFR2 (Homo sapiens, UniProt P21802) (assay: FGFR wild type enzyme assay (HTRF KinEASE-TK), FGFR2). Settings: Enz FGFR2 (nM).
Chain of FGFR2 (P21802 399-821 limits assumed): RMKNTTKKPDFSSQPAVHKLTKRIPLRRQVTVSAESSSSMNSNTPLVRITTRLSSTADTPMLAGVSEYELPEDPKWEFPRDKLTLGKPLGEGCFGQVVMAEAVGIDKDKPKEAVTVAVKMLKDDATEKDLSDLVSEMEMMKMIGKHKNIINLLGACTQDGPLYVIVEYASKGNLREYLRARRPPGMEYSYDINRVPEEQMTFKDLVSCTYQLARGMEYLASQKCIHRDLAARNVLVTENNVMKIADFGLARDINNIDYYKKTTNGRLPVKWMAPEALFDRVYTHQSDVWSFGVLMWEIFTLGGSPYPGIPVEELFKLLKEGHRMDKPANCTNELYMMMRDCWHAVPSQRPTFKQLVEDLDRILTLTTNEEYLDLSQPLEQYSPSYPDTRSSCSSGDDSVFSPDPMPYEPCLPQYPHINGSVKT

Row | SMILES | IC50
1 | Cc1c(-c2cc(Sc3ccccn3)c3c(C#N)cnn3c2)cnn1C1CCN(C(=O)[C@@H]2CCCN2C)CC1 [Example 99, 6-(5-methyl-1-(1-(methyl-L-prolyl)piperidin-4-yl)-1H-pyrazol-4-yl)-4-(pyridin-2-ylthio)pyrazolo[1,5-a]pyridine-3-carbonitrile] | 5 nM
2 | Cc1c(-c2cc(Sc3ccccn3)c3c(C#N)cnn3c2)cnn1C1CCN(CCO)CC1 [Example 100, 6-(1-(1-(2-hydroxyethyl)piperidin-4-yl)-5-methyl-1H-pyrazol-4-yl)-4-(pyridin-2-ylthio)pyrazolo[1,5-a]pyridine-3-carbonitrile] | 5 nM
3 | Cc1c(-c2cc(Sc3ncccc3F)c3c(C#N)cnn3c2)cnn1C1CCNCC1 [Example 101, 4-[(3-fluoro-2-pyridyl)sulfanyl]-6-[5-methyl-1-(4-piperidyl)pyrazol-4-yl] pyrazolo[1,5-a]pyridine-3-carbonitrile] | 2 nM
4 | Cc1c(-c2cc(Sc3ncccc3F)c3c(C#N)cnn3c2)cnn1[C@@H]1CCCNC1 [Example 102, 4-[(3-fluoro-2-pyridyl)sulfanyl]-6-[5-methyl-1-[(3R)-3-piperidyl]pyrazol-4-yl]pyrazolo[1,5-a]pyridine-3-carbonitrile] | 6 nM
5 | Cc1c(-c2cc(Sc3ncccc3F)c3c(C#N)cnn3c2)cnn1[C@H]1CCNC1 [Example 103] | 4 nM
6 | Cc1c(-c2cc(Sc3ccccc3C#N)c3c(C#N)cnn3c2)cnn1C1CCNCC1 [Example 104] | 1 nM
7 | Cc1c(-c2cc(Sc3ccccc3C#N)c3c(C#N)cnn3c2)cnn1[C@H]1CCCNC1 [Example 105, 4-(2-cyanophenyl)sulfanyl-6-[5-methyl-1-[(3S)-3-piperidyl]pyrazol-4-yl]pyrazolo[1,5-a]pyridine-3-carbonitrile] | 1 nM
8 | Cc1c(-c2cc(Sc3ccccc3C#N)c3c(C#N)cnn3c2)cnn1[C@@H]1CCNC1 [Example 106, 4-(2-cyanophenyl) sulfanyl-6-[5-methyl-1-[(3R)-pyrrolidin-3-yl]pyrazol-4-yl]pyrazolo[1,5-a]pyridine-3-carbonitrile] | 2 nM
9 | Cc1c(-c2cc(Sc3ncccc3F)c3c(C#N)cnn3c2)cnn1C1CCN(C)CC1 [Example 107, 4-[(3-fluoro-2-pyridyl)sulfanyl]-6-[5-methyl-1-(1-methyl-4-piperidyl)pyrazol-4-yl]pyrazolo[1,5-a]pyridine3-carbonitrile] | 1 nM
10 | Cc1c(-c2cc(Sc3ncccc3F)c3c(C#N)cnn3c2)cnn1C1CCN(CCO)CC1 [Example 108, 4-[(3-fluoro-2-pyridyl)sulfanyl]-6-[5-methyl-1-(1-methyl-4-piperidyl)pyrazol-4-yl]pyrazolo[1,5-a]pyridine3-carbonitrilee] | 2 nM
11 | COCCN1CCC(n2ncc(-c3cc(Sc4ncccc4F)c4c(C#N)cnn4c3)c2C)CC1 [Example 109, 4-[(3-fluoro-2-pyridyl)sulfanyl]-6-[1-[1-(2-methoxyethyl)-4-piperidyl]-5-methyl-pyrazol-4-yl]pyrazolo[1,5-a]pyridine-3-carbonitrile] | 2 nM
12 | Cc1c(-c2cc(Sc3ncc(F)cc3F)c3c(C#N)cnn3c2)cnn1C1CCNCC1 [Example 110, 4-[(3,5-difluoro-2-pyridyl)sulfanyl]-6-[5-methyl-1-(4-piperidyl)pyrazol-4-yl]pyrazolo[1,5-a]pyridine-3-carbonitrile] | 3 nM
13 | Cc1ccc(F)c(Sc2cc(-c3cnn(C4CCN(C)CC4)c3C)cn3ncc(C#N)c23)n1 [Example 111, 4-[(3-fluoro-6-methyl-2-pyridyl)sulfanyl]-6-[5-methyl-1-(1-methyl-4-piperidyl)pyrazol-4-yl]pyrazolo[1,5-a]pyridine-3-carbonitrile] | 3 nM
14 | Cc1c(-c2cc(Sc3ccccc3C#N)c3c(C#N)cnn3c2)cnn1[C@@H]1CCCNC1 [Example 112, 4-(2-cyanophenyl)sulfanyl-6-[5-methyl-1-[(3R)-3-piperidyl]pyrazol-4-yl]pyrazolo[1,5-a]pyridine-3-carbonitrile] | 2 nM
15 | Cc1c(-c2cc(Sc3ncccc3F)c3c(C#N)cnn3c2)cnn1[C@H]1CC[C@@H](N(C)C)CC1 [Example 113] | 1 nM
16 | Cc1nc(Sc2cc(-c3cnn(C4CCNCC4)c3C)cn3ncc(C#N)c23)ccc1F [Example 114, 4-[(5-fluoro-6-methyl-2-pyridyl)sulfanyl]-6-[5-methyl-1-(4-piperidyl)pyrazol-4-yl]pyrazolo[1,5-a]pyridine-3-carbonitrile] | 3 nM
17 | Cc1nc(Sc2cc(-c3cnn(C4CCNCC4)c3C)cn3ncc(C#N)c23)ccc1Cl [Example 115, 4-[(5-chloro-6-methyl-2-pyridyl)sulfanyl]-6-[5-methyl-1-(4-piperidyl)pyrazol-4-yl]pyrazolo[1,5-a]pyridine-3-carbonitrile] | 1 nM

Row | SMILES | IC50
18 | Cc1cc(Sc2cc(-c3cnn(C4CCNCC4)c3C)cn3ncc(C#N)c23)c(F)cn1 [Example 116, -[(5-fluoro-2-methyl-4-pyridyl)sulfanyl]-6-[5-methyl-1-(4-piperidyl)pyrazol-4-yl]pyrazolo[1,5-a]pyridine-3-carbonitrile] | 45 nM
19 | Cc1c(-c2cc(Sc3ccccc3F)c3c(C#N)cnn3c2)cnn1C1CCNCC1 [Example 118, 4-(2-fluorophenyl)sulfanyl-6-[5-methyl-1-(4-piperidyl)pyrazol-4-yl]pyrazolo[1,5-a]pyridine-3-carbonitrile] | 1 nM
20 | Cc1c(-c2cc(Sc3c(F)cccc3C#N)c3c(C#N)cnn3c2)cnn1C1CCN(C)CC1 [Example 119] | 1 nM
21 | Cc1c(-c2cc(Sc3cccn4cncc34)c3c(C#N)cnn3c2)cnn1C1CCN(C)CC1 [Example 120, 4-imidazo[1,5-a]pyridin-8-ylsulfany1-6-[5-methyl-1-(1-methyl-4-piperidyl)pyrazol-4-yl]pyrazolo[1,5-a]pyridine-3-carbonitrile] | 1 nM
22 | Cc1nccc(Sc2cc(-c3cnn(C4CCNCC4)c3C)cn3ncc(C#N)c23)c1F [Example 121] | 99 nM
23 | Cc1c(-c2cc(Sc3ccccc3C#N)c3c(C#N)cnn3c2)cnn1[C@H]1CCNC1 [Example 122, 4-(2-cyanophenyl)sulfanyl-6-[5-methyl-1-[(3S)-pyrrolidin-3-yl]pyrazol-4-yl]pyrazolo[1,5-a]pyridine-3-carbonitrile] | 1 nM
24 | Cc1c(-c2cc(Sc3ccc(Cl)cc3C#N)c3c(C#N)cnn3c2)cnn1C1CCNCC1 [Example 123, 4-(4-chloro-2-cyano-phenyl)sulfanyl-6-[5-methyl-1-(4-piperidyl)pyrazol-4-yl]pyrazolo[1,5-a]pyridine-3-carbonitrile] | 9 nM
25 | Cc1c(-c2cc(Sc3ccccc3C#N)c3c(C#N)cnn3c2)cnn1[C@H]1CC[C@@H](N(C)C)CC1 [Example 124] | 1 nM
26 | Cc1c(-c2cc(Sc3ccccc3F)c3c(C#N)cnn3c2)cnn1C1CCN(C)CC1 [Example 125] | 1 nM
27 | CN1CCC[C@H]1C(=O)N1CCC(n2cc(-c3cc(Sc4ncccc4F)c4c(C#N)cnn4c3)cn2)CC1 [Example 126, 4-[(3-fluoro-2-pyridyl)sulfanyl]-6-[1-[1-[(2S)-1-methylpyrrolidine-2-carbonyl]-4-piperidyl]pyrazol-4-yl]pyrazolo[1,5-a]pyridine-3-carbonitrile] | 1 nM
28 | CN1CCC[C@@H]1C(=O)N1CCC(n2cc(-c3cc(Sc4ncccc4F)c4c(C#N)cnn4c3)cn2)CC1 [Example 127, 4-[(3-fluoro-2-pyridyl)sulfanyl]-6-[1-[1-[(2R)-1-methylpyrrolidine-2-carbonyl]-4-piperidyl]pyrazol-4-yl]pyrazolo[1,5-a]pyridine-3-carbonitrile] | 1 nM
29 | Cc1ccc(Sc2cc(-c3cnn(C4CCNCC4)c3C)cn3ncc(C#N)c23)nc1C [Example 129] | 2 nM
30 | Cc1c(-c2cc(Sc3cccc4c3ncn4C)c3c(C#N)cnn3c2)cnn1C1CCN(C)CC1 [Example 131, 4-(1-methylbenzimidazol-4-yl)sulfanyl-6-[5-methyl-1-(1-methyl-4-piperidyl)pyrazol-4-yl]pyrazolo[1,5-a]pyridine-3-carbonitrile] | 40 nM
31 | Cc1c(-c2cc(Sc3cccc4ncn(C)c34)c3c(C#N)cnn3c2)cnn1C1CCN(C)CC1 [Example 132, 4-(3-methylbenzimidazol-4-yl)sulfanyl-6-[5-methyl-1-(1-methyl-4-piperidyl)pyrazol-4-yl]pyrazolo[1,5-a]pyridine-3-carbonitrile] | 10 nM
32 | Cc1c(-c2cc(Sc3cccc4c3cnn4C)c3c(C#N)cnn3c2)cnn1C1CCN(C)CC1 [Example 133, 4-(1-methylindazol-4-yl)sulfanyl-6-[5-methyl-1-(1-methyl-4-piperidyl)pyrazol-4-yl]pyrazolo[1,5-a]pyridine-3-carbonitrile] | 6 nM
33 | Cc1c(-c2cc(Sc3ccccc3F)c3c(C#N)cnn3c2)cnn1[C@H]1CCCNC1 [Example 134, 4-(2-fluorophenyl)sulfanyl-6-[5-methyl-1-[(3S)-3-piperidyl]pyrazol-4-yl]pyrazolo[1,5-a]pyridine-3-carbonitrile] | 1 nM

Same assay, conditions: Enz FGFR2 (nM), FGFR2 wild type enzyme

Row | SMILES | IC50
34 | Cc1c(-c2cc(Sc3ccc(F)cc3C#N)c3c(C#N)cnn3c2)cnn1C1CCNCC1 [Example 135, 4-4-((2-cyano-4-fluorophenyl)thio)-6-(5-methyl-1-(piperidin-4-yl)-1H-pyrazol-4-yl)pyrazolo[1,5-a]pyridine-3-carbonitrile] | 1 nM
35 | Cc1c(-c2cc(Sc3ccccc3F)c3c(C#N)cnn3c2)cnn1[C@@H]1CCCNC1 [Example 136, (R)-4-((2-fluorophenyl)thio)-6-(5-methyl-1-(piperidin-3-yl)-1H-pyrazol-4-yl)pyrazolo[1,5-a]pyridine-3-carbonitrile] | 4 nM
36 | Cc1c(-c2cc(Sc3c(F)cccc3C#N)c3c(C#N)cnn3c2)cnn1C1CCNCC1 [Example 137, 4-((2-cyano-6-fluorophenyl)thio)-6-(5-methyl-1-(piperidin-4-yl)-1H-pyrazol-4-yl)pyrazolo[1,5-a]pyridine-3-carbonitrile] | 1 nM
37 | Cc1c(-c2cc(Sc3ccccc3C#N)c3c(C#N)cnn3c2)cnn1C1CCN(CCO)CC1 [Example 138, 4-((2-cyanophenyl)thio)-6-(1-(1-(2-hydroxyethyl)piperidin-4-yl)-5-methyl-1H-pyrazol-4-yl)pyrazolo[1,5-a]pyridine-3-carbonitrile] | 1 nM
